From patent publication US8431706B2, “1,2,3,4-tetrahydroqinoline derivative useful for the treatment of diabetes” (Eli Lilly and Company, priority 2011, dated 2013) come the findings set out here.

In experiment [1] the test system is mouse insulinoma cell line Min6. Nature of the experiment: Glucose Dependent Insulin Secretion (GDIS) assay in Min6 cells. Format: cell-based. The procedure:
Because activation of GPR40 is known to result in insulin secretion, which is dependent on high glucose concentrations, two separate assay systems (an insulinoma cell line and primary rodent islets) are developed to further characterize compounds that are known to increase intracellular calcium in the GPR40 primary assay discussed above.
GDIS assays are performed using the mouse insulinoma cell line Min6. […] On the day of the experiment, the cells are washed twice with 200 μl of pre-warmed Krebs-ringer buffer without glucose. Addition of 200 μL of pre-warmed Krebs-ringer buffer containing 2.5 mM glucose is used to starve the cells followed by the addition of compounds in the presence of a high concentration of glucose (25 mM). The plate is incubated at 37° C. for 2 hours. At the end of the 2 h incubation, the supernatant is gently transferred into a Millipore filter plate and spun at 200 g (gravitational force) for 3 minutes. Insulin is assayed using a Mercodia Insulin estimation kit.

For the next experiment, the target named is T1, PPARα (Homo sapiens, UniProt Q07869).
T1 construct: made in house; host or cells: HEK293 (cell lysates)
T1 sequence (Q07869 1-468): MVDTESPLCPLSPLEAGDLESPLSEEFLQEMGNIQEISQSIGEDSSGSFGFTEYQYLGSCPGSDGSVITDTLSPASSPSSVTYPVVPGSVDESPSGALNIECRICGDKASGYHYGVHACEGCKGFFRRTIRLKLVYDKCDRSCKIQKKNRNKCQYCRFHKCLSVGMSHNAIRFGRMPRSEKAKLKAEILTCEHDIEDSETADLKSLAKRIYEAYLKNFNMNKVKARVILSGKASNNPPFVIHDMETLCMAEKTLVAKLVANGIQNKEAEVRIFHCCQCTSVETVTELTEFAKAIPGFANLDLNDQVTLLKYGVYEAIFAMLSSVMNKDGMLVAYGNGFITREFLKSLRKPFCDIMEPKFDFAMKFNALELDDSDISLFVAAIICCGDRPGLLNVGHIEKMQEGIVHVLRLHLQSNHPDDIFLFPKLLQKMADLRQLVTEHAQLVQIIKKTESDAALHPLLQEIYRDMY
T1 sequence (P19793 1-462 partner): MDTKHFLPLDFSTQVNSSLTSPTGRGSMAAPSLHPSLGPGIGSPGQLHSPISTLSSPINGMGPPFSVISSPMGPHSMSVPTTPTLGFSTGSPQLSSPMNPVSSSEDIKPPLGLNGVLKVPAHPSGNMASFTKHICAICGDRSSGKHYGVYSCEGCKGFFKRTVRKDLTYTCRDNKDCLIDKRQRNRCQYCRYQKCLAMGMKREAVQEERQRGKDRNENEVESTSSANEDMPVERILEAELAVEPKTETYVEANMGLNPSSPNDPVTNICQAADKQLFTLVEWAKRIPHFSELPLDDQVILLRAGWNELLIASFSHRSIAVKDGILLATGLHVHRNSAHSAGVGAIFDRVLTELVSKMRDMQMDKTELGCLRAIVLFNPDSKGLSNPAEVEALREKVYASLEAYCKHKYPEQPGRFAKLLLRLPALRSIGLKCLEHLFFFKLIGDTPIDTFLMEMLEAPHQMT
The experiment in a line: PPARα binding assay (SPA). The procedure:
Because GPR40 is known to be activated by ligands to PPARγ, the exemplified compound is examined in PPARα, PPARδ, and PPARγ binding and functional assays to determine the selectivity of the compound of Example 1 for GPR40.
Binding affinities of the compound for the PPAR α, δ, and γ receptors are assessed using Scintillation Proximity Assay (SPA) technology. Biotinylated oligonucleotide Direct Repeat 2 (DR2) is used for binding the receptors to Yttrium silicate streptavidin-coated SPA beads. PPAR α, δ, γ and retinoid X receptor (RXR) α are over expressed in HEK293 cells, and cell lysates containing the specific receptors are used in the individual assays. The DR2 is attached to the SPA beads over a 30 minute period in a binding buffer containing 10 mM HEPES pH 7.8, 80 mM KCl, 0.5 mM MgCl2, 1 mM DTT, 0.5% 3[(3-cholamidopropyl)dimethylammonio]-propanesulfonic acid (CHAPS), and 4.4% bovine serum. […] Non-specific binding is determined in the presence of 10,000 nM of the unlabeled PPAR α/δ dual agonist reference compound for the alpha and delta receptor assays and the PPARγ agonist reference compound for the gamma receptor assay. The binding reaction (100 μl per well in a 96 well [Costar 3632] plate) is incubated for 10 h and counted disintegration per minutes (dpm) on a Wallac Microbeta. Receptor binding affinity (IC50) for the compound is determined by fitting an 11 point concentration-response curve with a 4-parameter logistic equation. Ki is determined from the IC50 using the Cheng-Prussoff equation and Kd determined by saturation binding. […]

Each structure is given as a SMILES string. Where only a bound is given, the exact number is not on record here.

By IC50 is commonly meant the concentration that inhibits the measured activity by half. On to `CC#C[C@@H](CC(=O)O)c1ccc(OCc2ccc(CN3CCCc4cccc(OC)c43)s2)cc1` [Example 1, (3S)-3-[4-[[5-[(8-Methoxy-3,4-dihydro-2H-quinolin-1-yl)methyl]-2-thienyl]methoxy]phenyl]hex-4-ynoic acid], for which the “increase in insulin secretion” value in experiment [1] (1.0 μM plus 25 mM glucose, fold over 25 mM glucose, 2 h, P<0.01) turned out to be 2.68 fold. Besides, in experiment [1] (0.01, 0.1, 1.0 and 10.0 μM plus 25 mM glucose), the “insulin secretion, dose response” value is listed as “dose dependent increase in insulin secretion”. In addition, the binding result on PPARα (concentrations up to 10 μM) was “no binding is detected”. Moreover, the IC50 at PPARα (tested up to 30 μM, read-out: relative IC50) was above 10 µM. Moreover, the PPAR binding values result at PPARα (with 10 μM concentrations of test compound) is “greater than 1000 nM”.
